Assay results published in paper PMC10330135 (Chemistry (Weinheim an der Bergstrasse, Germany), 2023).

Assays:
Format in all cases: biochemical
PtmG = biological target: T1, PtmG (Streptomyces pactum, UniProt A8R0J2); assay: mass spectrometry of substrate consumption; conditions: formed in situ by PtmN, PtmA and PtmB; 10 h with PtmG
T1 sequence (A8R0J2 1-378): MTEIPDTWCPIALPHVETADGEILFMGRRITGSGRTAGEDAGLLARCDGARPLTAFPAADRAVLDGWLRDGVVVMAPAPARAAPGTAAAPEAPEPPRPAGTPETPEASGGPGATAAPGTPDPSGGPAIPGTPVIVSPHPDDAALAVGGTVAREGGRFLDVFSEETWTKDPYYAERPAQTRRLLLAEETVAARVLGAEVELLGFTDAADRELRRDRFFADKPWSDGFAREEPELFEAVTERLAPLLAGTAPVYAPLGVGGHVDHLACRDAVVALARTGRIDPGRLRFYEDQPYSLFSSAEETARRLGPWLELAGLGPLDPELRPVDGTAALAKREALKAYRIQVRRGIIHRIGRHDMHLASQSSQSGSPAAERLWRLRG

PtmJ = biological target: T2, PtmJ (Streptomyces pactum, UniProt A8R0J5); assay: enzymatic glycosylation
T2 sequence (A8R0J5 1-318): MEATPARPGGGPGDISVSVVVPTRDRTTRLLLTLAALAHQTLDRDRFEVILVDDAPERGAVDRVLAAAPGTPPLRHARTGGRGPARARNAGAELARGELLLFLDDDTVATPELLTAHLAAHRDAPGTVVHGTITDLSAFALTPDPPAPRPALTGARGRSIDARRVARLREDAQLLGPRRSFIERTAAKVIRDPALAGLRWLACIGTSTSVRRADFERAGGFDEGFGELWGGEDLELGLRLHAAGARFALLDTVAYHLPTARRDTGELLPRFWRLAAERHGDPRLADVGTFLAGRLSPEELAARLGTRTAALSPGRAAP

PtmN = biological target: T3, PtmN (Streptomyces pactum, UniProt A8R0J9); assay: mass spectrometry of product; conditions: NAD+; cofactor recycling as for GlcNAc-3AAP
T3 sequence (A8R0J9 1-351): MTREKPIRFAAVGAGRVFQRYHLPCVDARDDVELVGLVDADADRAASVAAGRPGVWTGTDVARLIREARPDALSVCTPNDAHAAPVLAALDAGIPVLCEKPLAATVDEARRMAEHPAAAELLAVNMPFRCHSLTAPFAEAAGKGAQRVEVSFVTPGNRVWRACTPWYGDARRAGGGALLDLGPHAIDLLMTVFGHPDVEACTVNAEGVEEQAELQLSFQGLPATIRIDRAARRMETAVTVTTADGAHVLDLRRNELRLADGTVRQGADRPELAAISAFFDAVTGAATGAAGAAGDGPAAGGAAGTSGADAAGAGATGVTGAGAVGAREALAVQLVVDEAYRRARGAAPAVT

`CC(=O)N[C@@H]1[C@@H](NC(N)=O)[C@H](O)[C@@H](CO)O[C@H]1Nc1cccc(C(C)=O)c1` [compound 20, N-carbamoylated GlcNAc-3AAP] was tested, and the “mass spectrometry of substrate consumption” value (PtmG) was “after incubation with PtmG, the carbamoylated GlcNAc-3AAP was partially consumed”.

For `CC(=O)NCCSC(=O)c1cccc(N)c1` [3ABA-SNAC], the “enzymatic glycosylation; product used in the next reactions” value (PtmJ) was “The 3ABA-SNAC was first glycosylated with the glycosyltransferase PtmJ”.

For `CC(=O)NCCSC(=O)c1cccc(N[C@@H]2O[C@H](CO)[C@@H](O)[C@H](O)[C@H]2NC(C)=O)c1` [compound 15, GlcNAc-3ABA-SNAC], the “mass spectrometry of product” value (PtmN) was “reaction of GlcNAc-3ABA-SNAC with PtmN showed an oxidation product”.
